Experimental findings from patent publication US20170298056A1, “SMALL MOLECULE INHIBITORS OF HIV-1 ENTRY AND METHODS OF USE THEREOF” (Dana-Farber Cancer Institute, Inc., priority 2014, published 2017) are described below.

One data set concerns HIV-1KB9. The experiment in a line: Viral infection assay, dual-tropic isolate. The data set is classed as cell-based. As to conditions: dual-tropic HIV-1KB9. As to the method:
Production of recombinant HIV-1 expressing luciferase. 293T cells were cotransfected with an Env expression plasmid, a firefly luciferase-expressing lentiviral vector (pHIVcc2.luc) and an HIV-1-based packaging plasmid (psPAX2, cat #11348, NIH AIDS Research and Reference Reagent Program) at a ratio of 1:6:3 using Effectene (Qiagen, Germantown, Md.). After 48 hours, the supernatant was collected, buffered with 50 mM Hepes pH 7.4 (final concentration) and centrifuged for 5 minutes at 750×g and 4° C. The virus-containing supernatant was used directly or frozen at −80° C.
Viral infection assay. Each test compound was serially diluted in DMSO in a 96-well B&W isoplate (PerkinElmer, Boston, Mass.) using an HP D300 Digital Dispenser, to a final volume of 450 nl. DMSO was used as a control. Viruses pseudotyped with a specific Env were added to each well and incubated briefly at room temperature. […] The activity of the firefly luciferase, which was used as a reporter protein in the system, was measured with a Centro LB 960 luminometer (Berthold Technologies, Oak Ridge, Tenn.). One hundred microliters of assay buffer (15 mM MgSO4, 15 mM KH2PO4/K2HPO4 pH 7.8, 1 mM ATP and 1 mM DTT) was injected to each well, followed by a 50 μl injection of 1 mM Dluciferin potassium salt (BD Pharmingen, San Jose, Calif.); luminescence was measured for 2 sec. […]

In another data set the test system is Cf2Th-CD4/CCR5 cells. Description: Viability assay (CellTiterGlo), CD4/CCR5-expressing target cells. The data set is classed as cell-based. The conditions noted are these: read-out: half-maximal cytotoxic concentration (CC50). As for the experimental part:
(§1) Viability Assay. As part of the secondary screen, cells were incubated for ˜20 hours in 384-well plates in a final volume of 45 μl growth medium at 37° C. The plate was equilibrated to room temperature, 15 μl of CellTiterGlo (Promega) was added to each well and luminescence was measured as described above. The viability assay with 18A was done in parallel to the viral infection assay for the same length of time. 18A was diluted using an HP D300 Digital Dispenser in a 96-well B&W isoplate and cells were added. After incubation of 26-30 hours (Cf2Th cells) or 40-44 hours (PBMC). 30 μl (Cf2Th cells) or 100 μl (PBMC) of CellTiterGlo was added and luminescence was measured as described above.
A general note: In ATP-based viability assays light output follows the ATP content of the culture.

Another data set relates to Cf2Th-CD4/CXCR4 cells. Description: Viability assay (CellTiterGlo), CD4/CXCR4-expressing target cells. The data set is classed as cell-based. As for the experimental part:
as §1

In the next data set the test system is HIV-1JR-FL. The experiment in a line: Washout experiment, HIV-1JR-FL infection. The data set is classed as cell-based. The conditions noted are these: washing out before infection. As to the method:
For washout experiments, different concentrations of 18A were incubated with the recombinant viruses at 37° C. for 20 minutes. The viruses were laid on a 20% sucrose cushion and ultracentrifuged at 30,000 RPM in an SW55 rotor for 1.5 hours at 4° C. After the supernatant was aspirated, viruses were suspended in 500-1000 μl medium and 90 μl of the virus suspension was used to infect 5000 Cf2Th-CD4/CCR5 cells (5 replicates). The cells were incubated for 48 hours and processed as described above. Sensitivity of recombinant viruses to cold inactivation was measured.

The next data set deals with CCR5. The experiment in a line: Binding of soluble gp120 to Cf2Th-CCR5 cells (flow cytometry). The conditions noted are these: absence and presence of soluble CD4. Also noted: species or system human. As to the method:
Binding of soluble JR-FL gp120 to CCR5 was tested by incubating 1 million Cf2Th-CCR5 cells with 20 μg/mL purified gp120 in the presence or absence of 20 μg/mL sCD4 for 1 hour. After two washes, the cells were incubated with the 2G12 antibody followed by Allophycocyanin-conjugated F(ab′)2 fragment donkey anti-human IgG antibody to detect bound gp120. The cells were analyzed by FACS. All procedures were performed at room temperature.
In general terms: In flow cytometry, cells or beads pass a laser one at a time.

For data set [1], the system named is HIV-1JR-FL E168K+N188AΔCT Env trimer. The experiment in a line: PG9 antibody binding to cell-surface Env trimer (flow cytometry). As for the experimental part:
(§2) Flow cytometry. […] After 48-72 hours, cells were detached with 5 mM EDTA/PBS and between 0.5-1 million cells were briefly incubated with various concentrations of 18A and then with or without the indicated concentrations of sCD4. C34-Ig (at a final concentration of 20 μg/ml) or a specified antibody (at final concentration of 1 μg/ml) was added to the cells. […] Cells were washed twice and analyzed with a BD FACSCanto II flow cytometer (BD Biosciences). For analysis of resistant mutants (FIG. 5e-g), the measurements were normalized for the level of sCD4 binding of each mutant, and the response of each mutant was further normalized to that of the wild-type HIV-1JR-FL E168K+N188AΔCT Env (herein designated WTKA). […] The sCD4 IC50/sCD4 binding ratio (FIGS. 4c and e) was calculated as follows. Binding of sCD4 to different envelope mutants was measured by flow cytometry and normalized first to 2G12 binding to account for potentially different Env expression levels, and then to sCD4 binding to the wild-type HIV-1JR-FL Env. The IC50 of sCD4 for inhibition of virus infection by each mutant Env was divided by the normalized sCD4 binding to Env-expressing cells to calculate the sCD4 IC50/sCD4 binding value.

The subject of data set [2] is HIV-1JR-FLΔCT Env trimer (gp41 HR1). The experiment in a line: CD4-induced gp41 HR1 exposure, C34-Ig binding (flow cytometry). The conditions noted are these: 100 μM 18A prior to sCD4 addition; approx. 37% with sCD4 alone. As for the experimental part: as §2

On to `O=C(N/N=C/c1ccc(O)cc1)Nc1cccc2nsnc12` [Compound 18A], for which the inhibition of infection result in the data set on HIV-1KB9 is listed as “relatively resistant to inhibition”. Also, the CC50 came out at 44 µM in the data set on Cf2Th-CD4/CCR5 cells and 63 µM in the data set with Cf2Th-CD4/CXCR4 cells. Further, in the data set with HIV-1JR-FL, the “reversibility of inhibition of HIV-1 infection” value is reported as “reversible”. In addition, the “effect on gp120 binding to CCR5” value in the data set with CCR5 was “No effect”. The same molecule displayed a PG9 binding in data set [1] (18A added prior to sCD4 incubation, 37.6% without sCD4, 6.6% with sCD4 alone) of 24.1%. The “basal level of PG9 binding” value in data set [1] (absence of sCD4) is “did not affect”. Moreover, the “cells binding C34-Ig” value in data set [2] came out at 4.7%.
